Test results taken from article PMC10895676, “Antiviral Activity of Lipophilic Nucleoside Tetraphosphate Compounds” (Journal of Medicinal Chemistry, 2024).
Entries after “also recorded” stand apart in the source; their conditions may differ. Like-named read-outs stand apart in the source and are kept apart here.

What was measured:
[1] = test system: HIV-2 (ROD); experiment: Anti-HIV replication assay, HIV-2 (ROD) in wild-type CEM/0 cells; assay type: cell-based; settings: for selectivity index (SI): CC50/EC50, HIV-2 (ROD) in CEM cells; for EC50: Human immunodeficiency virus 2, CCRF-CEM, read-out: HIV-2 (ROD) EC50
Summary of the method: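 Wild-type CEM/0 or thymidine kinase-deficient CEM/TK– T-cells (~3 × 10^5 cells/mL) were infected with 100 CCID50/mL HIV-2(ROD) in the presence of compound dilutions. After 4–5 days at 37 °C, virus-induced cytopathicity and syncytium formation were scored microscopically.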

[2] = biological target: T1, human DNA polymerase β (Homo sapiens, UniProt P06746); experiment: Primer extension assay using human DNA polymerase β; assay type: biochemical; settings: 60 min, 2 U, 37 °C
T1 construct: purchased Chimerx
Excerpt: Encouraged by the previously obtained results that γ-phosphate-modified-d4TDPs 3, γ-monoalkylated d4TTP derivatives as well as d4TDP were accepted as substrates by HIV-RT,[49],[50],[55],[59]−[61] δ-dialkylated d4T tetraphosphate analogues 4,5, δ-monoalkylated d4T tetraphosphate analogues 20 and 24 and d4T4P were investigated in primer extension assays in the presence of HIV-RT or the three different human DNA polymerases α, β and γ. D4TTP (for the compounds 4–9) and the natural thymidine triphosphate (TTP) were used as reference compounds.
Figure 6 Primer extension assay using HIV-RT (A), human polymerases α (B), β (C), and γ (D). (Figure 6A). Primer extension assay using HIV-RT (30 min, 6U). Lane 1: (+) dATP, dCTP, dGTP, and TTP with HIV-RT. Lane 2: (−) dATP, dCTP, dGTP, and TTP without HIV-RT. Lane 3: TTP. […] Lane 5: δ-(C4; C18)-d4T4P 4d. […] Lane 7: δ-(C18)-d4T4P 20. Lane 8: δ-C-(C18)-d4T4P 24. Lane 9: d4T4P. Lane 10: d4TTP. Lane 11: d4TDP. HIV-RT assay reaction conditions: 50 mM Tris–HCl (pH 8.6), 10 mM MgCl2, 40 mM KCl, 250 μM dNTPs, HIV-RT (6 U), 0.20 μM DNA hybrid, primer-template-hybrid 0.32 mM in a reaction volume of 10 μL, incubated at 37 °C for 0.5 h, 80 °C for 7 min. Primer extension assays: 50 mA, 45 w for 4 h. (Figure 6B). For human DNA polymerase α assay (60 min, 2 U): Lane 1: (+) dATP, dCTP, dGTP, and TTP with human polymerase α. Lane 2: (−) dATP, dCTP, dGTP, and TTP without human polymerase α. Lane 3: TTP. […] Lane 5: δ-(C4; C18)-d4T4P 4d. […] Lane 7: δ-(C18)-d4T4P 20. Lane 8: δ-C-(C18)-d4T4P 24. Lane 9: d4T4P. Lane 10: d4TTP. Human DNA polymerase α assay conditions: 60 mM Tris–HCl (pH 8), 5 mM Mg(OAc)2, 100 mM KCl, 1.0 mM dithiothreitol, 0.1 mM spermine, 0.01% (w/v) bovine serum albumin, 250 μM dNTPs, 2 U human polymerase α, 0.20 μM DNA hybrid, and primer-template-hybrid 0.32 mM in a reaction volume of 10 μL, incubated at 37 °C for 1 h, 80 °C for 7 min. Primer extension assays: 50 mA, 45 w for 3 h. (Figure 6C). For human DNA polymerase β assay (60 min, 2 U): Lane 1: (+) dATP, dCTP, dGTP, and TTP with human polymerase β. Lane 2: (−) dATP, dCTP, dGTP, and TTP without human polymerase β. Lane 3: TTP. […] Lane 5: δ-(C4; C18)-d4T4P 4d. […] Lane 7: δ-(C18)-d4T4P 20. Lane 8: δ-C-(C18)-d4T4P 24. Lane 9: d4T4P. Lane 10: d4TTP. Human DNA polymerase β assay conditions: 50 mM Tris–HCl (pH 8.7), 10 mM Mg(OAc)2, 100 mM KCl, 1.0 mM dithiothreitol, 0.1 mM spermine, 0.01% (w/v) bovine serum albumin, 15% glycerol, 250 μM dNTPs, 2 U human DNA polymerase β, 0.20 μM DNA hybrid, and primer-template-hybrid 0.32 mM in a reaction volume of 10 μL, incubated at 37 °C for 1 h, 80 °C for 7 min. Primer extension assays: 50 mA, 45 w for 3 h. (Figure 6D), For the human DNA polymerase γ assay (120 min, 2 U): Lane 1: (+) dATP, dCTP, dGTP, and TTP with human polymerase γ. Lane 2: (−) dATP, dCTP, dGTP, and TTP without human polymerase γ. Lane 3: TTP. […] Lane 5: δ-(C4; C18)-d4T4P 4d. […] Lane 7: δ-(C18)-d4T4P 20. Lane 8: δ-C-(C18)-d4T4P 24. Lane 9: d4T4P. Lane 10: d4TTP. Human polymerase γ assay conditions: 60 mM Tris–HCl (pH 8), 5 mM Mg(OAc)2, 1.0 mM dithiothreitol, 0.1 mM spermine, 0.01% (w/v) bovine serum albumin, 250 μM dNTPs, 2 U human polymerase γ, 0.5 μM MnCl2, 0.20 μM DNA hybrid, primer-template-hybrid 0.32 mM in a reaction volume of 10 μL, incubated at 37 °C for 2 h, 80 °C for 7 min. Primer extension assays: 50 mA, 45 w for 3 h.
HIV-RT and human polymerases α, β, and γ were bought from Roboklon and Chimerx. The fluorescent-labeled primer and template were obtained from Metabion. […]

[3] = test system: HIV-1 (HE); experiment: Anti-HIV replication assay, HIV-1 (HE) in wild-type CEM/0 cells; assay type: cell-based; settings: Human immunodeficiency virus 1, CCRF-CEM, read-out: HIV-1 (HE) EC50
Summary of the method: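 Wild-type CEM/0 CD4+ T-cells (~3 × 10^5 cells/mL) infected with 100 CCID50/mL HIV-1(HE) alongside compound dilutions, incubated 4–5 days at 37 °C. Syncytia (giant cell) formation scored microscopically; EC50 is the concentration inhibiting HIV-induced giant cell formation by 50%.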

[4] = wild-type CEM/0 cells, mean ± SD, n = 2–3

SMILES | selectivity index (SI) [1] | EC50 [1, 4] | substrate for human DNA polymerase β (primer extension) [2] | EC50 [3, 4] | EC50 [1] | EC50 [3]
CCCCCCCCCCCCCCCCCCOP(=O)(OCCCC)OP(=O)(O)OP(=O)(O)OP(=O)(O)OC[C@@H]1C=C[C@H](n2cc(C)c(=O)[nH]c2=O)O1 (stereo partly drawn) [4d, δ-(Alkyl-C4; alkyl-C18)-d4T4P] | 522 | 84 ± 18 nM | not accepted | 110 ± 10 nM |  | 
CCCCCCCCCCCCCCCCCCP(=O)(OCCCC)OP(=O)(O)OP(=O)(O)OP(=O)(O)OC[C@@H]1C=C[C@H](n2cc(C)c(=O)[nH]c2=O)O1 (stereo partly drawn) [5a, δ-(Alkyl-C4)-δ-C-(alkyl-C18)-d4T4P] |  |  | No incorporation of d4TMP |  | 330 ± 120 nM | 330 ± 90 nM
CCCCCCCCCCCCCCCCCCP(=O)(O)OP(=O)(O)OP(=O)(O)OP(=O)(O)OC[C@@H]1C=C[C@H](n2cc(C)c(=O)[nH]c2=O)O1 [compound 24, δ-C-(Alkyl-C18)-d4T4P] |  | 240 ± 70 nM |  | 430 ± 370 nM |  | 
CCCCCCCCCCCCCCCCCCOP(=O)(O)OP(=O)(O)OP(=O)(O)OP(=O)(O)OC[C@@H]1C=C[C@H](n2cc(C)c(=O)[nH]c2=O)O1 [compound 20, δ-(Alkyl-C18)-d4T4P] | >200 | 500 ± 160 nM |  | 710 ± 260 nM |  | 
Cc1cn([C@H]2C=C[C@@H](COP(=O)(O)OP(=O)(O)OP(=O)(O)OP(=O)(O)O)O2)c(=O)[nH]c1=O [d4T4P, 2′,3′-didehydro-2′,3′-dideoxythymidine-5′-tetraphosphate] |  | 220 ± 92 nM | efficiently incorporated; also recorded: substrate | 420 ± 160 nM |  | 
